Measured values published in US8637525B2, “Compounds for the reduction of beta-amyloid production” (Bristol-Myers Squibb Company, priority 2009, dated 2014).
Counter-ions that a name gives are not always drawn. Like-named read-outs stand apart in the source and are kept apart here.

Tested on: Aβ1-42 production
Test: Cellular assay for inhibition of Aβ1-42 production (H4 APP751 SWE clone 8.20)
Type: cell-based
Settings: H4 APP751 SWE clone 8.20 cells, 19 h incubation
Experimental: Cellular Assays for Inhibition of Aβ1-40 and Aβ1-42 Production
H4 cells stably transfected with APP751 containing the Swedish mutation (H4 APP751 SWE clone 8.20, developed at BMS) were maintained in log phase through twice weekly passage at a 1:20 split. […] Following incubation for 19 h in 5% CO2 at 37° C., plates were briefly centrifuged (1000 rpm, 5 min). A 10 μl aliquot from each well was transferred to a second assay plate (Costar 3709) for Aβ40 measurements. Antibody cocktails were freshly prepared by dilution into 40 mM Tris-HCl (pH 7.4) with 0.2% BSA and added to assay plates. For Aβ42 measurements, antibodies specific for the Aβ42 neoepitope (565, developed at BMS; conjugated to the Wallac reagent (Perkin Elmer)) and the N-terminal sequence of Aβ peptide (26D6, developed at SIBIA; conjugated to APC (Perkin Elmer)) were mixed and 20 μl of the mixture was added to each well of the incubated cell plate yielding a final concentration of 0.8 ng/well 565 and 75 ng/well 26D6. For the Aβ40 measurements, antibodies specific for the Aβ40 neoepitope (TSD, developed at BMS; conjugated to the Wallac reagent (Perkin Elmer)) and 26D6 as described above were mixed and 20 μl of the mixture was added to the 10 μl aliquots which had been removed previously from the cell plate yielding a final concentration of 1.6 ng/well TSD and 17.5 ng/well 26D6. Assay plates containing antibodies were sealed with aluminum foil and incubated overnight at 4° C. Signal was determined using a Viewlux counter (Perkin Elmer) and IC50 values determined using curve fitting in CurveMaster (Excel Fit based).

[1] = 19 h, class symbols, read-out: Activity Rating (Aβ42 cellular IC50)
[2] = class symbols, read-out: Activity Rating (Aβ42 cellular IC50)
[3] = 19 h, read-out: Activity Rating (Aβ42 cellular IC50), numeric value

## CNc1nc(Nc2ccc(-n3cnc(Cl)c3)c(OC)c2)nc2c1CN(C)CC2c1ccc(F)cc1 (stereo not shown) [Example 163A, N2-(4-(4-chloro-1H-imidazol-1-yl)-3-methoxyphenyl)-8-(4-fluorophenyl)-N4,6-dimethyl-5,6,7,8-tetrahydropyrido[4,3-d]pyrimidine-2,4-diamine]
[1]
  IC50: 1.5 to 9.9 nM

## CNc1nc(Nc2ccc(-c3ccnc(Cl)c3)c(OC)c2)nc2c1CCC2c1ccccc1 (stereo not shown) [Example 278, N2-(4-(2-chloropyridin-4-yl)-3-methoxyphenyl)-N4-methyl-7-phenyl-6,7-dihydro-5H-cyclopenta[d]pyrimidine-2,4-diamine]
[1]
  IC50: 10 to 100 nM

## CCNc1nc(Nc2ccc(-n3cnc(Cl)c3)c(OC)c2)nc2c1CCC2(C)c1ccccc1 (stereo not shown) [Example 110A, N2-(4-(4-chloro-1H-imidazol-1-yl)-3-methoxyphenyl)-N4-ethyl-7-methyl-7-phenyl-6,7-dihydro-5H-cyclopenta[d]pyrimidine-2,4-diamine]
[2]
  IC50: 1.5 to 9.9 nM

## CCNc1nc(Nc2ccc(-n3ncnc3C)c(F)c2)nc2c1CN(CC(F)(F)F)CC2c1ccccc1 (stereo not shown) [Example 146, N4-ethyl-N2-(3-fluoro-4-(5-methyl-1H-1,2,4-triazol-1-yl)phenyl)-8-phenyl-6-(2,2,2-trifluoroethyl)-5,6,7,8-tetrahydropyrido[4,3-d]pyrimidine-2,4-diamine]
[1]
  IC50: 10 to 100 nM

## CNc1nc(Nc2cnc(-n3cnc(Cl)c3)c(OC)c2)nc2c1CCC2c1cc(F)c(F)c(F)c1 (stereo not shown) [Example 105, N^2-(6-(4-Chloro-1H-imidazol-1-yl)-5-methoxypyridin-3-yl)-N^4-methyl-7-(3,4,5-trifluorophenyl)-6,7-dihydro-5H-cyclopenta[d]pyrimidine-2,4-diamine]
[3]
  IC50: 8.8 nM

## CNc1nc(Nc2ccc(-n3ncnc3C)c(F)c2)nc2c1COC2c1ccc(F)cc1 (racemic) [Example 82, N2-(3-fluoro-4-(5-methyl-1H-1,2,4-triazol-1-yl)phenyl)-7-(4-fluorophenyl)-N4-methyl-5,7-dihydrofuro[3,4-d]pyrimidine-2,4-diamine, TFA]
[1]
  IC50: 10 to 100 nM

## CNC1CN(c2nc(Nc3ccc(-n4cnc(Cl)c4)c(OC)c3)nc3c2CCC3c2ccc(F)cc2)C1 (stereo not shown) [Example 33, N-(4-(4-chloro-1H-imidazol-1-yl)-3-methoxyphenyl)-7-(4-fluorophenyl)-4-(3-(methylamino)azetidin-1-yl)-6,7-dihydro-5H-cyclopenta[d]pyrimidin-2-amine]
[3]
  IC50: 100 nM

## CNc1nc(Nc2ccc(Br)cc2OC)nc2c1CCC2c1ccccc1 (stereo not shown) [Example 221, N2-(4-bromo-2-methoxyphenyl)-N4-methyl-7-phenyl-6,7-dihydro-5H-cyclopenta[d]pyrimidine-2,4-diamine]
[1]
  IC50: > 1000 nM

## CCNc1nc(Nc2ccc(-n3cnc(Cl)c3)c(OC)c2)nc2c1CN(CC(F)(F)F)CC2c1ccccc1 (stereo not shown) [Example 196A]
[2]
  IC50: 1.5 to 9.9 nM

## CNc1nc(Nc2ccc(-n3cnc(Cl)c3)c(OC)c2)nc2c1C=CCC2(O)c1ccccc1 (stereo not shown) [Example 177, 2-(4-(4-chloro-1H-imidazol-1-yl)-3-methoxyphenylamino)-4-(methylamino)-8-phenyl-7,8-dihydroquinazolin-8-ol]
[1]
  IC50: 10 to 100 nM

## CCNc1nc(Nc2ccc(-n3ncnc3C)c(F)c2)nc2c1CN(S(C)(=O)=O)CC2c1ccccc1 (stereo not shown) [Example 140, N4-ethyl-N2-(3-fluoro-4-(5-methyl-1H-1,2,4-triazol-1-yl)phenyl)-6-(methylsulfonyl)-8-phenyl-5,6,7,8-tetrahydropyrido[4,3-d]pyrimidine-2,4-diamine]
[2]
  IC50: 10 to 100 nM

## COc1cc(Nc2nc3c(c(N4CCC(F)(F)C4)n2)CCC3c2cc(F)c(F)c(F)c2)ccc1-n1cnc(Cl)c1 (single isomer, unassigned) [Example 107A, N-(4-(4-chloro-1H-imidazol-1-yl)-3-methoxyphenyl)-4-(3,3-difluoropyrrolidin-1-yl)-7-(3,4,5-trifluorophenyl)-6,7-dihydro-5H-cyclopenta[d]pyrimidin-2-amine]
[2]
  IC50: 10 to 100 nM

## CNc1nc(Nc2ccc(C#N)cc2)nc2c1CCC2c1ccccc1 (stereo not shown) [Example 226, 4-(4-(methylamino)-7-phenyl-6,7-dihydro-5H-cyclopenta[d]pyrimidin-2-ylamino)benzonitrile]
[1]
  IC50: 100 to 1000 nM

## CC#Cc1ccc(Nc2nc(NC)c3c(n2)C(c2ccc(F)cc2)CC3)cc1 (stereo not shown) [Example 260, 7-(4-fluorophenyl)-N4-methyl-N2-(4-(prop-1-ynyl)phenyl)-6,7-dihydro-5H-cyclopenta[d]pyrimidine-2,4-diamine]
[3]
  IC50: 860 nM

## CNc1nc(Nc2ccc(-n3cnc(C)n3)c(OC)c2)nc2c1COCC2c1ccc(Cl)cc1 (single isomer, unassigned) [Example 71B, 8-(4-chlorophenyl)-N^2-(3-methoxy-4-(3-methyl-1H-1,2,4-triazol-1-yl)phenyl)-N^4-methyl-7,8-dihydro-5H-pyrano[4,3-d]pyrimidine-2,4-diamine]
[2]
  IC50: 10 to 100 nM

## COc1cc(Nc2nc3c(c(N4C[C@@H](C)O[C@@H](C)C4)n2)COC3c2ccc(F)cc2)ccc1-n1cnc(Cl)c1 (stereo partly drawn) [Example 84A, N-(4-(4-chloro-1H-imidazol-1-yl)-3-methoxyphenyl)-4-((2S,6R)-2,6-dimethylmorpholino)-7-(4-fluorophenyl)-5,7-dihydrofuro[3,4-d]pyrimidin-2-amine]
[1]
  IC50: 10 to 100 nM

## [2H]C([2H])([2H])Nc1nc(Nc2ccc(-n3cnc(Cl)c3)c(OC)c2)nc2c1CCC2c1ccccc1 (stereo not shown) [Example 176, N^2-(4-(4-Chloro-1H-imidazol-1-yl)-3-methoxyphenyl)-N^4-trideuteromethyl-7-phenyl-6,7-dihydro-5H-cyclopenta[d]pyrimidine-2,4-diamine]
[1]
  IC50: 1.5 to 9.9 nM

## COc1cc(Nc2nc3c(c(N4CC[C@H](F)C4)n2)CCC3c2ccc(F)cc2)ccc1-n1cnc(Cl)c1 (single isomer, unassigned) [Example 37]
[1]
  IC50: 1.5 to 9.9 nM

## COc1cc(Nc2nc3c(c(N4CCC(F)(F)CC4)n2)CCC3c2ccc(F)cc2)ccc1-n1cnc(Cl)c1 (stereo not shown) [Example 39B, N-(4-(4-chloro-1H-imidazol-1-yl)-3-methoxyphenyl)-4-(4,4-difluoropiperidin-1-yl)-7-(4-fluorophenyl)-6,7-dihydro-5H-cyclopenta[d]pyrimidin-2-amine]
[1]
  IC50: 100 to 1000 nM

## CNc1nc(Nc2cccc(C#N)c2)nc2c1CCC2c1ccccc1 (stereo not shown) [Example 233, 3-(4-(methylamino)-7-phenyl-6,7-dihydro-5H-cyclopenta[d]pyrimidin-2-ylamino)benzonitrile]
[1]
  IC50: > 1000 nM

## CNc1nc(Nc2ccc(-n3cnc(C)n3)c(F)c2)nc2c1CCOC2c1ccccc1 (stereo not shown) [Example 86, N2-(3-fluoro-4-(3-methyl-1H-1,2,4-triazol-1-yl)phenyl)-N4-methyl-8-phenyl-6,8-dihydro-5H-pyrano[3,4-d]pyrimidine-2,4-diamine]
[1]
  IC50: 10 to 100 nM

## CNc1nc(Nc2ccc(NC3(C#N)CC3)c(OC)c2)nc2c1CCC2c1ccccc1 (stereo not shown) [Example 248, 1-(2-methoxy-4-(4-(methylamino)-7-phenyl-6,7-dihydro-5H-cyclopenta[d]pyrimidin-2-ylamino)phenylamino)cyclopropanecarbonitrile]
[1]
  IC50: > 1000 nM

## CCNc1nc(Nc2ccc(-n3cnc(Cl)c3)c(OC)c2)nc2c1COCC2c1ccc(C#N)cc1 (racemic) [Example 121, 4-(2-(4-(4-chloro-1H-imidazol-1-yl)-3-methoxyphenylamino)-4-(ethylamino)-7,8-dihydro-5H-pyrano[4,3-d]pyrimidin-8-yl)benzonitrile, TFA]
[1]
  IC50: 10 to 100 nM

## CCN(C)c1nc(Nc2ccc(-n3cnc(Cl)c3)c(OC)c2)nc2c1COCC2c1ccccc1 (single isomer, unassigned) [Example 52B, N^2-(4-(4-Chloro-1H-imidazol-1-yl)-3-methoxyphenyl)-N^4-ethyl-N^4-methyl-8-phenyl-7,8-dihydro-5H-pyrano[4,3-d]pyrimidine-2,4-diamine]
[2]
  IC50: 10 to 100 nM

## COc1cc(Nc2nc3c(c(N(C)C)n2)CCCC3c2ccc(F)cc2)ccc1-n1cnc(Cl)c1 (single isomer, unassigned) [Example 127A, N^2-(4-(4-chloro-1H-imidazol-1-yl)-3-methoxyphenyl)-8-(4-fluorophenyl)-N^4,N^4-dimethyl-5,6,7,8-tetrahydroquinazoline-2,4-diamine]
[2]
  IC50: 1.5 to 9.9 nM

## CNc1nc(Nc2ccc(CC#N)cc2)nc2c1CCC2c1ccccc1 (stereo not shown) [Example 231, 2-(4-(4-(methylamino)-7-phenyl-6,7-dihydro-5H-cyclopenta[d]pyrimidin-2-ylamino)phenyl)acetonitrile]
[1]
  IC50: 100 to 1000 nM

## COc1cc(Nc2nc3c(c(N(C)C)n2)CCC3c2ccc(F)c(F)c2)ccc1-n1cnc(Cl)c1 (single isomer, unassigned) [Example 95B, N^2-(4-(4-chloro-1H-imidazol-1-yl)-3-methoxyphenyl)-7-(3,4-difluorophenyl)-N^4,N^4-dimethyl-6,7-dihydro-5H-cyclopenta[d]pyrimidine-2,4-diamine]
[2]
  IC50: 10 to 100 nM

## CNc1nc(Nc2cncnc2)nc2c1CCC2c1ccccc1 (stereo not shown) [Example 223, N4-methyl-7-phenyl-N2-(pyrimidin-5-yl)-6,7-dihydro-5H-cyclopenta[d]pyrimidine-2,4-diamine]
[3]
  IC50: 11000 nM
